Laboratory results from patent publication US20190369119A1, “Protein Biomarkers for Identifying and Treating Aging Skin and Skin Conditions” (priority 2018, published 2019).

Legend:
Assay type in all cases: cell-based
[1] = test system: HSP70 protein level; assay: HSP70 ELISA (Enzo kit), normal human dermal fibroblasts, 24 h treatment; details: 0.01%, HDF cells, FIG. 4
Protocol: (§1) Normal human dermal fibroblasts (Cascade Biologics) were seeded into four wells of a six well plate (5.0×10^5 cells/well) and cultured overnight. The following day, cells were replenished with fresh media and test compositions were added. The test compositions including their control for each formulation: […]
(§2) Following 24 hours of treatment, the cells were lysed and the HSP70 protein level was measured using an ELISA kit (available from Enzo Life Sciences). Cells were lysed using the lysis buffer provided with the kit. The amount of proteins for each sample was calculated using the standard curve.
The assay was performed in triplicate for each sample and the values represent mean±S.D. (standard deviation).

[2] = test system: HSP70 protein level; assay: HSP70 ELISA (Abcam kit), full thickness human 3D skin cultures (MatTek), 24 h treatment; details: 1% by weight, skin 3-D tissues, FIG. 6
Protocol: A series of experiments was conducted to assess the effects of various treatments with HSP70 inducers on full thickness 3D skin cultures. Human 3D skin (MatTek, Mass.) were cultured following the manufacturer's instructions overnight. The following day, tissues were replenished with fresh media and then compositions comprising various potential actives were added. Following 24 hours of treatment, the tissues were lysed and the HSP70 protein level was measured using an ELISA kit (available from Abcam). The amount of the proteins was calculated according to the standard curve. For these measurements, the test materials were formulated in control at 1% by weight of the composition or at 0.04% by weight of the composition (Arnica montana, rosemary, black cohosh, turmeric, chamomile, aloe, horse chestnut, linseed, grapeseed, argan oil, gromwell, marjoram, sage, lauric acid, butyric acid) or they were formulated in control at 0.04% by weight of the composition (licorice, tetrahydrocurcumin (THC), olive leaf, milk thistle, glutamate).
The results are shown in FIG. 6 as the measured amount of HSP70 proteins/μg total protein for each sample. Samples labeled with “*” indicate a p value compared to the control of less than 0.05.

[3] = test system: HSP70 protein level; assay: HSP70 ELISA (Abcam kit), normal human dermal fibroblasts, 24 h treatment; details: for stimulation of HSP70 protein level as compared to control: HDF cells, FIG. 5; for HSP70 induction value (Control = 1): normal human dermal fibroblasts, FIG. 3
Protocol: Normal human dermal fibroblasts were cultured in 6-well tissue culture treated plates. Cells were treated with test material (agent/compound) at the concentrations indicated, or with respective vehicle control diluted in growth medium, for 24 hours in a humidified 37° C. incubator with 5% CO2. After incubation, growth medium from each plate was removed and cells were lysed. HSP70 protein level in the cells was determined by a commercially available ELISA kit (Abcam, Cambridge, Mass.). In FIG. 3, Control induction value=1; shikonin (1 μM concentration) induction value=1.7; Arnica Montana (0.003% concentration) induction value=1.86; resveratrol (0.003% concentration) induction value=1.47; and G. T. polyphenol (0.003% concentration) induction value=1.24.
as §1, with “Similar experimentation on other HSP70 inducers was performed using an HSP70 ELISA kit (available from Abcam; cat. # ab133060). Briefly, normal” for “Normal”
as §2, with “The active ingredient was formulated in the ethanol:water control. Following” for “Following”, “Abcam).” for “Enzo Life Sciences).”
The assay was performed in triplicate for each sample and the values represent mean±S.D. (standard deviation). Samples labeled with “*” indicate a p value compared to the control of less than 0.05.

Compound	stimulation of HSP70 protein level as compared to control ([3]; 0.003%)	HSP70 induction value (Control = 1) ([3]; 0.003%)	also measured
C=C(C)[C@@H]1CCC(C)=C[C@H]1c1c(O)cc(CCCCC)cc1O [CBD, cannabidiol]	–	–	stimulation of HSP70 protein level compared to its control [1]: 189%
CCCC(=O)O [butyric acid]	–	–	stimulation of HSP70 protein levels as compared to control [2]: 248%
Oc1ccc(/C=C/c2cc(O)cc(O)c2)cc1 [resveratrol, trans-3,5,4′-trihydroxystilbene]	147%	1.47	–
CC(C)=CC[C@@H](O)C1=CC(=O)c2c(O)ccc(O)c2C1=O [shikonin]	–	–	stimulation of HSP70 protein level as compared to control ([3]; 1 μM): 170%; HSP70 induction value (Control = 1) ([3]; 1 μM): 1.7
epigallocatechin-3-gallate [G. T. polyphenol]	124%	1.24	–
